Laboratory results reported in US6747135B1, “Fluorescent dye binding peptides” (The Board of Trustees for the Leland Stanford Junior …, priority 1998, dated 2004).
“Also recorded” adds a separate entry of the source.

How the values were obtained:
[1] = Peptide-Texas Red binding in solution, excitation and emission spectra; conditions: for changes in peak excitation or emission: concentrated peptide with 50 nM Texas Red; for peak emission shift / peak excitation shift: 10 μM peptide, 50 nM Texas Red, TBS, 1 hr RT
Description: FIGS. 5A and 5B. Peptide—Texas Red binding. Excitation and emission spectra. Peptides at the noted concentrations were incubated with Texas Red (50 nM), or without, in 0.6 ml of TBS for 1 hr at room temperature (RT). Samples were scanned on a spectrofluorimeter (SPEX Fluoromax (Jobin Yvon-SPEX Instruments Co.)). Excitation and excitation/emission peak shifts for PepTR401(10 μM)/Texas Red and PepTRS311 (10 μM)/Texas Red complexes, respectively (A), were reproducible in three independent experiments. The results of a single experiment are presented.
(§1) The above test only checks for bound dye that remains fluorescent at the wavelengths tested. Binding of fluorophore dyes to specific peptides might result in changes in the fluorescence spectra of bound dye versus the spectra of free dye. Or, one might observe an increase or quenching of fluorescence. We mixed concentrated peptide with 50 nM of the corresponding dye in solution and determined the excitation and emission spectra of the resulting mixture.
We attempted with these findings to obtain an affinity measurement for the higher affinity TRS311 peptide. Peptides in different concentrations (1.3-20 μM) were incubated with Texas Red (50 nM) in 0.6 ml of TBS buffer for 1 hr at RT. Excitation and emission spectra of samples were obtained by using spectrofluorimeter SPEX Fluoromax (Jobin Yvon-SPEX Instruments Co.) and DataMax software package. Peak positions were automatically calculated by software. List mode data was saved for other analyses.

[2] = Dye binding to peptide-coated cobalt Sepharose beads, fluorescence microscopy; conditions: 0.5 μM Texas Red in TBS, 1 hr, RT
Description: FIG. 6. Texas Red-specific peptide PepTR401 (Panel A), PepTRS311 (Panel B), PepTR406 (Panel C) and nonspecific PepControl (Panel D) (see peptide sequences in Table 4) were bound via His6 tag to cobalt ion-containing Sepharose beads. The peptide coated beats were washed and incubated with 0.5 micromolar Texas Red in TBS for 1 hour at room temperature followed by several washings of beads in order to remove unbound dye. Fluorescent and nonflourescent control beads were photographed on fluorescent microscope Axiophot (Zeiss) using Rhodamine Red/Texas Red filter with the same time exposure for every sample. All binding experiments were accomplished in three parallels and results of a single experiments are shown.
Peptides were bound to cobalt ion-coated Sepharose beads and the resultant peptide-coated beads were incubated with corresponding fluorophore dyes, washed, and visualized for dye binding. The same amounts of Texas Red-specific peptides PepTR401, PepTRS311, PepTR406 as well as nonspecific peptide PepControl (see Table 4) were bound via His6 tag to the TALON Metal Affinity Resin (Clontech) in TBS buffer essentially as described by manufacturer's protocol. Beads (5 μl) were washed twice with 0.5 ml TBS to remove unbound peptide and incubated with 0.5 μM Texas Red in 40 μl of TBS buffer for 1 hr at RT. Finally, the beads were washed three times with 0.3 ml TBS to remove unbound dye. Fluorescent and nonfluorescent control beads were photographed with 10-fold magnification on fluorescent microscope Axiophot (Zeiss) using Rhodamine Red/Texas Red filter with 5″ exposure.

[3] = Binding affinity of phage clones carrying SKVILFE-flanked fluorettes; conditions: phage clone, SKVILFE-flanked fluorette
[4] = Phage binding to Oregon Green 514 carrier beads, plaque assay of bound phage; conditions: for Kd: phage clone, Oregon Green 514 carrier beads
Description: (§2) These mutations may be important for increasing the overall affinity of the peptide fluorette-fluorophore interaction. We tested one of each of the phage from the secondary screens for increases in avidity (Table 3). PEG-purified TR401 phage, TRS311 phage or the amplified Ph.D.-12 phage display peptide library phage as a negative control (input 1.5×10^8-1.1×10^10 pfu with 2 to 5-fold increments) were incubated with 23.5 μl of BSA-blocked and washed Texas Red carrier beads in binding buffer (see above) in total volume 40 μl for 3 hr. Beads suspensions were centrifuged, the supernatants (unbound phage) were titrated and dissociation constants were measured via a standard linear Scatchard plot. For TR401 and TRS311 phage bound/unbound ratios were quite reliable (6.3-13.1 in the range of phage concentrations shown above). All binding experiments were performed in duplicate and titrations were performed in triplicate. […] For higher Kd, bound/unbound ratios became unreliable (=1).
(§3) Other PEG-purified phage (input 5×10^8-2.5×10^10 pfu with 2 to 5-fold increments) were bound to the respective fluorophore dye carriers essentially in the same manner as described above for Texas Red-specific phage. RhR401 and RhRS308, OG403 and OGS316, OG402 and FluS303 phage, were bound to the Rhodamine Red, Oregon Green 514 or Fluorescein carriers, respectively. Following binding the beads were quickly washed twice by 0.25 ml of TBS+0.1% Tween-20 and suspended in 10 ml TBS. 10 μl of suspension was mixed with ^−2×10^8 log-phase ER2537 cells and incubated 1 hr at 4° C. with slight shaking to allow phage adsorption. Several ten-fold dilutions of infected cells were mixed with noninfected ER2537 cells and plated in standard plaque assay (Sambrook et al., supra). All binding experiments and titrations were accomplished in duplicate. […] For all above phage pfu/particle ratio was in the range 0.4-0.5.

[5] = Phage-free fluorophore dye binding in solution (PEG precipitation, filter scan); conditions: vs unselected library phage
Description: FIG. 3. Phage-fluorophore dye binding. Fluorophore dye-specific OG403, OG402, RhR401 and TR401 phage were bound to Oregon Green 514, Fluorescein, Rhodamine Red and Texas Red “free” dyes, respectively (see text). The normalized particle amounts of amplified Ph.D.-12 phage display peptide library (nonspecific phage) were bound in solution with the same dyes as controls. Phage-fluorophore dye complexes were precipitated three times by PEG to remove unbound dye and spotted to a nitrocellulose filter. The filter was scanned on the Storm 840 scanner (Molecular Dynamics). The presented data is from a single scan and image enhancements were done simultaneously on the complete set of dye binding results using NIH Image 1.59 software. Specific/nonspecific signal ratios were quantified by densitometry of spot images using NIH Image 1.59 software (see Materials and Methods for details). All binding experiments shown were completed in duplicate. Densitometry was carried out prior to contrast enhancement. Brightness and contrast values were modified to 50 and 65, respectively in Adobe Photoshop. Individual elements of the figure were arranged as a composite from the same original scan from which the binding ratios were determined.
Four activated derivatives of fluorophore dyes (see above) were quenched in 0.5M Tris-HCl, pH 8.7 and used as “free” dyes. Ten μl of PEG-purified and 300-fold concentrated phage TR401, RhR401, OG402, OG403 (1.3-1.8×10^12 phage particles; calculated from optical densities of the purified phage at 260 and 280 nm) in TBS+0.05% sodium azide buffer were separately mixed with an equal volume of 20 μM solution of the corresponding free dyes in the same buffer; mixtures were adjusted by Tween-20 to 0.1% and incubated for 3 hr. Phage-fluorophore dye complexes were precipitated three times by PEG-8000 in order to remove unbound dye and dissolved in 6.6 μl of TBS+0.05% sodium azide buffer. Finally, phage-fluorophore dye complexes (1 μl of each) were spotted to nitrocellulose filter and filter was scanned on the Storm 840 scanner (Molecular Dynamics) in Blue Fluorescence/Chemifluorescence mode with 200 μ pixel resolution. To determine nonspecific binding the normalized amounts of phage particles of amplified, unselected, and PEG-purified Ph.D.-12 phage display peptide library were separately incubated with the corresponding free dyes and treated in the same conditions. All binding experiments were accomplished in duplicate. Specific/nonspecific signal ratios were quantified by densitometry of spot images using “Measure” option of NIH Image 1.59 freeware package.

[6] = Phage binding to Rhodamine Red carrier beads, plaque assay of bound phage; conditions: for Kd: phage clone, Rhodamine Red carrier beads
Description: as §2, §3

[7] = Cross-binding of Rhodamine Red-selected phage to the inappropriate dye carrier; conditions: RhR-4 phage on Texas Red carrier, vs nonspecific phage background
Description: (§4) We tested the binding specificity and excluded the possibility that the TR401 and RhR401 phage were selected against the polymer linker moiety rather than a fluorophore dye moiety of the dye carriers. The TR-4 and RhR-4 phage were cross-bound to Rhbdamine Red and Texas Red carriers, respectively. […] Thus the TR401 and RhR401 fluorettes are specific by this comparison for their respective conjugated dyes, despite the similarity of the compound core ring structures. Second, they had affinity for the corresponding conjugated fluorophore dyes rather than only a polymer linker moiety of Texas Red and Rhodamine Red carriers or other chemical features of the carriers themselves.

[8] = Dye binding to peptide-coated cobalt Sepharose beads, fluorescence microscopy; conditions: Fluorescein
[9] = Peptide-Fluorescein binding in solution, excitation and emission spectra; conditions: peptide with 50 nM Fluorescein
Description: as §1

[10] = Dye binding to peptide-coated cobalt Sepharose beads, fluorescence microscopy; conditions: Oregon Green 514
[11] = Cross-binding of Texas Red-selected phage to the inappropriate dye carrier; conditions: TR-4 phage on Rhodamine Red carrier, vs nonspecific phage background
Description: as §4

[12] = Phage direct binding to Texas Red carrier beads, Scatchard plot; conditions: phage clone (5 pIII-fluorette copies, avidity), 3 hr
Description: as §2

[13] = Phage binding to Fluorescein carrier beads, plaque assay of bound phage; conditions: for Kd: phage clone, Fluorescein carrier beads
Description: as §2, §3

[14] = Binding affinity of synthetic constrained peptides to Texas Red; conditions: for Kd: synthetic SKVILFE-flanked peptide; for fold more avid than linear TR401 and TRS311 peptides: synthetic constrained vs linear peptides

In the case of “ASGSGASGSAGSGGGSAETVGGGHHHHHH [control peptide, reference compound]”, the “changes in peak excitation or emission” value [1] is reported as “No detectable changes”.

For “DFLOWKLAROKPGGGSAETVGGGHHHHHH (DFLQWKLARQKPGGGSAETVGGGHHHHHH; fluorette) [PepTR406]”, the “changes in peak excitation or emission” value [1] was “No detectable changes” and the “dye binding to peptide-coated beads” value [2] was “did not bind”.

With EPMARPWERKQDR [TRP527] the Kd [3] was over 5 nM.

GNQKCLQHNRCST [TRP518] showed a Kd [3] of over 5 nM.

Work on GTLSATRPYGRQW [TRP541] yielded a Kd [3] of over 5 nM.

In the case of HEWEYYWDWTAW [OGS316], the “Affinity increase (fold)” value ([4]; mutant fluorette phage vs parental OG403 phage) is reported as 2.7 fold and the Kd [4] is reported as 2.4 nM.

In the case of HGWDYYWDWTAW [OG403], the “phage binding of free fluorophore dye in solution” value ([5]; free Oregon Green 514, 3 hr) is reported as “specifically bound” and the Kd [4] is reported as 6.4 nM.

In the case of IPHPPMYWTRVF [RhR401], the “phage binding of free fluorophore dye in solution” value ([5]; free Rhodamine Red, 3 hr) is reported as “specifically bound”, the Kd [6] is reported as 23 nM and the “binding specificity, cross-binding to inappropriate dye carrier” value [7] is reported as “specific”.

With IPHRPMYWTPVF [RhRS308] the “Affinity increase (fold)” value ([6]; mutant fluorette phage vs parental RhR401 phage) was “not even marginally improved; also recorded: no increase” and the Kd [6] was 21.5 nM.

With “KHVOYWTOMFYSGGGSAETVGGGHHHHHH (KHVQYWTQMFYSGGGSAETVGGGHHHHHH; fluorette) [PepTR401]” the “dye binding to peptide-coated beads” value [8] was “bound to neither Oregon Green 514 nor Fluorescein”, the peak emission shift [1] was “no emission shift change” and the peak excitation shift [1] was “+1.9 nm”. The “shift in Fluorescein excitation or emission spectra” value [9] was “no shift”, the “dye binding to peptide-coated beads” value [10] was “bound to neither Oregon Green 514 nor Fluorescein” and the “dye binding to peptide-coated beads” value [2] was “significant binding”.

In the case of KHVQYWTQMFYS [TR401], the “phage binding of free fluorophore dye in solution” value ([5]; free Texas Red, 3 hr) is reported as “specifically bound”, the “binding specificity, cross-binding to inappropriate dye carrier” value [11] is reported as “specific” and the Kd [12] is reported as 0.27 nM.

For “KPVOYWTOMFYTGGGSAETVGGGHHHHHH (KPVQYWTQMFYTGGGSAETVGGGHHHHHH; fluorette) [PepTRS311]”, the “dye binding to peptide-coated beads” value [8] was “bound to neither Oregon Green 514 nor Fluorescein”, the peak emission shift [1] was 1.4 nm and the peak excitation shift [1] was “~+2.8 nm”. The Kd ([1]; calculated roughly from peak shifts, peptide 1.3-20 μM, Texas Red 50 nM, read-out: affinity of the peptide for the fluorophore) was 100 to 500 nM, the “change in peak excitation position on reducing peptide concentration” value ([1]; peptide from 10 μM to 1.3 μM, Texas Red 50 nM) was “reduced slightly, but not completely” and the “dye binding to peptide-coated beads” value [10] was “bound to neither Oregon Green 514 nor Fluorescein”. For the same substance, the “dye binding to peptide-coated beads” value [2] was “significant binding”.

Work on KPVQYWTQMFYT [TRS311] yielded a Kd [12] of 0.09 nM.

In the case of RTIWEPKEASNHT [TRP501], the Kd [3] is reported as 0.08 nM.

Work on RWTWEPISE [TRP512] yielded a Kd [3] of 0.025 nM.

With SQTWSFPEH [TRP526] the Kd [3] was over 5 nM.

For WSKMGHTVT [TRP505], the Kd [3] was over 5 nM.

With YPNDFEWWEYYF [OG402] the Kd [13] was 17.4 nM and the “phage binding of free fluorophore dye in solution” value ([5]; free Fluorescein, 3 hr) was “specifically bound”.

For YPNEFDWWDYYY [FluS303], the “Affinity increase (fold)” value ([13]; mutant fluorette phage vs parental OG402 phage) was 6.5 fold and the Kd [13] was 2.7 nM.

In the case of “synthetic SKVILFE-flanked Texas Red-specific peptide with His6 tag (SEQ ID NO:120) (GGGSKVILFEGPAGRTIWEPKEASNHTGAPGSKVILFEGGPGHHHHHH) [TRP501 peptide]”, the Kd [14] is reported as about 200 nM and the “fold more avid than linear TR401 and TRS311 peptides” value [14] is reported as “≈ 8 fold”.

For “synthetic SKVILFE-flanked Texas Red-specific peptide with His6 tag (SEQ ID NO:121) (GGGSKVILFEGPAGRWTWEPISEGAPGSKVILFEGGPGHHHHHH) [TRP512 peptide]”, the Kd [14] was about 10 nM and the “fold more avid than linear TR401 and TRS311 peptides” value [14] was “≈ 160 fold”.
